The values below come from patent publication US20030194373A1, “Angiogenesis targeting molecules” (priority 1998, published 2003).

One assay deals with T1, αvβ3 receptor (Homo sapiens, UniProt P05106+P06756).
T1 construct: The HUVECs are known to express KDR, Flt-1 and αvβ3 receptors; host or cells: HUVEC
The assay can be described thus: Cell adhesion assay with HUVECs and vitronectin. The note with it: HUVECs, FIG. 5. In kind it is cell-based. As to the method:
HUVECs (BioWhittaker) were cultured on gelatin-coated plates in MCDB 131 media supplemented with 15% fetal bovine serum (FBS), 4 ng/ml basic fibroblast growth factor, 10 ng/ml epidermal growth factor, and 10 U/ml heparin; cells were used in experiments at passages 2-10. The HUVECs are known to express KDR, Flt-1 and αvβ3 receptors.
HUVECs were harvested using 15 mM EDTA pH8.0, washed 3 times, and resuspended in serum-free media. 4×10^4 cells were preincubated either alone (control) or with test compound for 15 minutes at 37° C., then incubated in 96 well plates coated with known integrin ligand—eg. 5 μg/ml vitronectin (Sigma Aldrich Canada, Oakville, ON) coated 3 hours., 37° C., or RGD-ECM precoated plates (Chemicon International, Temecula, Calif.)—and blocked with 1% bovine serum albumin (BSA). Cells were allowed to adhere for 1-2 hours at 37° C. Unbound cells were removed by washing with phosphate-buffered saline (PBS) and the remaining adherent cells were fixed with 2% paraformaldehyde (30 minutes, room temperature). Adhesion was quantitated by cell staining with crystal violet followed by dye extraction with 10% acetic acid. The absorbance was measured at 595 nm in a microplate reader (Bio-Rad Laboratories, Richmond, Calif.). The sequence RGDS was used as a positive control, and RGES was used as a negative control. […]

The test system of the next assay is angiogenesis. The conditions noted are these: compared with fumagillin; cited from earlier work.
For a further assay, the target named is KDR/Flk-1. The note with it: KDR/Flk-1 receptor; read-out: binding affinity to VEGF (KDR/Flk-1); cited from earlier work.
In another assay the target is Flt-1 (Homo sapiens, UniProt P17948). The note with it: Flt-1 receptor; read-out: binding affinity to VEGF (Flt-1); cited from earlier work.
Sequence of Flt-1 (P17948 27-1338, species assumed): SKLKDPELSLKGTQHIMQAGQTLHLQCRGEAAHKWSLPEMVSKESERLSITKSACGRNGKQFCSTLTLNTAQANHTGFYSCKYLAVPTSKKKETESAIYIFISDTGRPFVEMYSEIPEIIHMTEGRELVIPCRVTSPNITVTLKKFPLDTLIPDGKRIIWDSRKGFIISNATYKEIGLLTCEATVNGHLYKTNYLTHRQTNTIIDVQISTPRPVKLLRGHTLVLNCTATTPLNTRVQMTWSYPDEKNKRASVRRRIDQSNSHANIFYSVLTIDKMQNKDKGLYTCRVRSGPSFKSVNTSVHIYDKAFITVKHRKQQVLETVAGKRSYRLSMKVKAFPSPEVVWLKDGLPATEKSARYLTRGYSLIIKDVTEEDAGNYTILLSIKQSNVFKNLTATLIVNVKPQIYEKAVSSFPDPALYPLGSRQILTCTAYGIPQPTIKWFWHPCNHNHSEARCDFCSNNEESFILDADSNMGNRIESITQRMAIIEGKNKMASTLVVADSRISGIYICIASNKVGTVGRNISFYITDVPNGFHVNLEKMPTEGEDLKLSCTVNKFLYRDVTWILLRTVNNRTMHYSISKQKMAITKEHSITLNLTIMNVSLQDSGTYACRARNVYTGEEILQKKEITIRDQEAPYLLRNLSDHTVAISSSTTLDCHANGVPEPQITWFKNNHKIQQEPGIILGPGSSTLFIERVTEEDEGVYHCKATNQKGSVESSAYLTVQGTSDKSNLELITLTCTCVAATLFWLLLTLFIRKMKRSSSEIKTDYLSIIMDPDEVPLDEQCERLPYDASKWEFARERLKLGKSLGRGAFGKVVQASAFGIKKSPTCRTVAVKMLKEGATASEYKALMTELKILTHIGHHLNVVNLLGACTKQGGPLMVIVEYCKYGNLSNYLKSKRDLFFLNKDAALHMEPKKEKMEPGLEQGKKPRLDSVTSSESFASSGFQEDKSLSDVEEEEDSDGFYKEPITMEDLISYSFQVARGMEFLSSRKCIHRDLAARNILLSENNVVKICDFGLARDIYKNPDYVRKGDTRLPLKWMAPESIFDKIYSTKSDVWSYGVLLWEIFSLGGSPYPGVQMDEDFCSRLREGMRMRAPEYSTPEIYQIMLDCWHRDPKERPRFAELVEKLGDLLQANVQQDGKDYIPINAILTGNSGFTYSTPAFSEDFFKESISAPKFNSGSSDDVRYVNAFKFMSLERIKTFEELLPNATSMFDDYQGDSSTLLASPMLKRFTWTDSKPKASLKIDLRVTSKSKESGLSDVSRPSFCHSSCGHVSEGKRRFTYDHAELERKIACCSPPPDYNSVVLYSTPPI

T1 sequence (P06756 31-889 limits assumed): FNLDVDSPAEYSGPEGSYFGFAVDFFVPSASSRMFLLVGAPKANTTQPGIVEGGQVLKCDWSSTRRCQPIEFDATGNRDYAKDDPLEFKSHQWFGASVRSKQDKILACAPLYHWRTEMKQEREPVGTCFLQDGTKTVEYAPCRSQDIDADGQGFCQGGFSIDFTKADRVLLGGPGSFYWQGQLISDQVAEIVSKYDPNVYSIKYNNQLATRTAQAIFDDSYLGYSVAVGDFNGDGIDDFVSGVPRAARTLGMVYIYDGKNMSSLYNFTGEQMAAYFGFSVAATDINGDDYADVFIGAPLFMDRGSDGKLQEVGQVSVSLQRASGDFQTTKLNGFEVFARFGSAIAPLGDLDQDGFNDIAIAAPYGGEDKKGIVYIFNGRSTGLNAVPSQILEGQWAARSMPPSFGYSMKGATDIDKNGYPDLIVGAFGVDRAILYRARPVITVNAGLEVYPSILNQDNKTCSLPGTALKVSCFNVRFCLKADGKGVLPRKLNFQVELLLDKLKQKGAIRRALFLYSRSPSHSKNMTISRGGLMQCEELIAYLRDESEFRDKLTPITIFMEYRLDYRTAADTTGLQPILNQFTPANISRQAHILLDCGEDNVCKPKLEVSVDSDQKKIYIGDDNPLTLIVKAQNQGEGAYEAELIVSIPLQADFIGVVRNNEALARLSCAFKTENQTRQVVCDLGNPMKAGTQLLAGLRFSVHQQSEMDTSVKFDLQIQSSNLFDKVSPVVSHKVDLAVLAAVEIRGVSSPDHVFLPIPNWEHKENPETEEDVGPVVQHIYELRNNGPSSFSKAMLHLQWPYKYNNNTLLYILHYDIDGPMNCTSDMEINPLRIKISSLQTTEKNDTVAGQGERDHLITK
T1 sequence (P06756 891-1048 partner limits assumed): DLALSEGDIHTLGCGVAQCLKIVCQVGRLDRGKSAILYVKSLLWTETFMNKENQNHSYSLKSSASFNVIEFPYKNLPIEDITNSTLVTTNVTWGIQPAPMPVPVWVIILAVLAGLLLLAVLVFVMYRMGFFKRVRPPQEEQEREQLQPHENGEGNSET
T1 sequence (P05106 27-788): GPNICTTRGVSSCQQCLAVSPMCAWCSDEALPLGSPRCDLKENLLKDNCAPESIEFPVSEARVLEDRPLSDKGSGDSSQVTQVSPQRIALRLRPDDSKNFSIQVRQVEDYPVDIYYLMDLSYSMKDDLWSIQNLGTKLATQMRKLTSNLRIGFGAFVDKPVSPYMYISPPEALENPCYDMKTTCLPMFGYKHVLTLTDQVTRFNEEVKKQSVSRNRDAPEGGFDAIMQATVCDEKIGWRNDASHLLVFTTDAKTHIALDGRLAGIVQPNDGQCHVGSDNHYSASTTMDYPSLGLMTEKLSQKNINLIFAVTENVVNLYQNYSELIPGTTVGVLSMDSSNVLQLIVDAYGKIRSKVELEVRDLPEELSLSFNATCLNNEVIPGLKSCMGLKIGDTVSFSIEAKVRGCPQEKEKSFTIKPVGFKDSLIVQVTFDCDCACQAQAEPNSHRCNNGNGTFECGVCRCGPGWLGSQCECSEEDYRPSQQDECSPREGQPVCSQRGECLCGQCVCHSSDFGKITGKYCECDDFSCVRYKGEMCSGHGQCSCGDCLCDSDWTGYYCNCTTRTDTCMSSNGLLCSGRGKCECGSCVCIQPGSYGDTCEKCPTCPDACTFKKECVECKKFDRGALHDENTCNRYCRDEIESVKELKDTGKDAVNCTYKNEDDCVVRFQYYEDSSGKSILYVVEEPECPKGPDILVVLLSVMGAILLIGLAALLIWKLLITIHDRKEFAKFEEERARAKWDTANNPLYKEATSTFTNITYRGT

On to R-G-D-S [RGDS, reference compound], for which, on αvβ3 receptor (vitronectin coated plate), the “effect on HUVEC binding to vitronectin / affinity for αvβ3 receptor” value is reported as “eliminated the binding”. At αvβ3 receptor (vitronectin), the inhibition of binding is 100%.

For `CO[C@@H]1[C@H](OC(=O)NC(=O)CCl)CC[C@]2(CO2)[C@H]1[C@@]1(C)O[C@@H]1CC=C(C)C` [TNP-470, O-(chloroacetylcarbamoyl)fumagillol], the “potency as inhibitor of angiogenesis relative to fumagillin” value in the assay with angiogenesis was 50 times.

In the case of `CO[C@@H]1C(=O)CC[C@]2(CO2)[C@@]1(O)[C@@]1(C)O[C@@H]1CC=C(C)C` [Ovalicin], in the assay with angiogenesis, the “potency as inhibitor of angiogenesis relative to fumagillin” value is 50 times.

For the compound VEGF, the Kd at KDR/Flk-1 was 0.125 nM; on Flt-1 it was 0.025 nM.
